Consider eleven compounds from patent EP0953357A1, “NEPHROTROPIC DRUGS” (Drug Delivery System Institute, Ltd., priority 1997, dated 1998).

Values joined by “and” are separate entries in the source; they are usually repeats but may differ in a detail not shown here. Equal values may be shown once.

Data set [1] concerns kidney membrane fraction. The data set can be described thus: Effect of glycolipid derivatives on inhibition of specific binding between ^3H-Glc-S-C8 and kidney membrane fraction (Test 9). The following applies: specific binding of ^3H-Glc-S-C8 to kidney membrane fraction, same manner as Test 4. How it is done:
A membrane fraction was prepared by the method of Stassen F.L. et al. (J. Pharm. Exp. Thera., 223, 50-54, 1982). An experiment on binding was carried out as follows. The membrane fraction prepared above, together with the ^3H-labeled derivative, was incubated in physiological phosphate buffer on ice, followed by ultracentrifugation. The bound product obtained as the sediment by the ultracentrifugation was counted. […]
Commercially available or synthesized glycolipid derivatives were subjected to an binding inhibition experiment in the same manner as in Test 4.

Data set [2] deals with kidney membrane fraction. Kind of data set: Inhibition of binding of ^3H-Glc-O-C8-AVP to kidney membrane fraction (Test 4). Particulars: ^3H-Glc-O-C8-AVP 20 pmol/ml, kidney membrane fraction 1 mg/ml, on ice 10 min. How it is done:
A membrane fraction was prepared by the method of Stassen F.L. et al. (J. Pharm. Exp. Thera., 223, 50-54, 1982). An experiment on binding was carried out as follows. The membrane fraction prepared above, together with the ^3H-labeled derivative, was incubated in physiological phosphate buffer on ice, followed by ultracentrifugation. The bound product obtained as the sediment by the ultracentrifugation was counted.
The inhibitory activity of segmental structures of Glc-O-C8-AVP and the like against binding ^3H-Glc-O-C8-AVP (20 pmol/ml) to the kidney membrane fraction (1 mg/ml) (incubation on ice for 10 min) was studied.

The subject of data set [3] is kidney membrane fraction. The data set can be described thus: Effect of sugars on inhibition of specific binding between ^3H-Glc-S-C8 and kidney membrane fraction (Test 8). The following applies: ^3H-Glc-S-C8 20 pmol/ml, kidney membrane fraction 1 mg protein/ml.
Method: In order to estimate structural requirement for recognition in the kidney, an experiment was carried out on the effect of various sugars and sugar derivatives on the inhibition of specific -binding between ^3H-Glc-S-C8 (20 pmol/ml) and the kidney membrane fraction (1 mg protein/ml).
Data set [4] is described as follows: Renal selectivity (organ distribution) of thioglucoside-modified products (Test 6). It counts as in vivo. Particulars: rats; for Conc. in kidney / Renal clearance: ^3H-labeled product, same manner as Test 1 (i.v. 1 nmol/kg, 5 min); for renal selectivity: comparison between AVP derivatives. As to the method: The organ clearance was determined by the following equation.

Data set [5] can be described thus: Pharmacokinetic test of monkey (Glc-S-C8-CONH-C2-NBD) (Test 10 (2)). It counts as in vivo. The following applies: monkeys, i.v. 10 nmol/kg, 5 min; n = 2, average. How it is done:
In order to investigate the difference in activity of the compounds according to the present invention between animal species, the pharmacokinetic test using monkeys was carried out as follows. […] The monkeys of group A were injected with Glc-S-C8-CONH-C2-NBD, while, for comparison, the monkeys of group B were injected with 4-(2-hydroxyethyl)amino-7-nitrobenz-2-oxa-1,3-diazole (synthesis intermediate prepared in Example 44; hereinafter referred to as "HO-C2-NBD").
Five min after the administration, the monkeys were bled to death; and, immediately after that, each organ was extracted. According to the conventional method, the organs were homogenized and deprotenized. Thereafter, the samples were subjected to separation by reversed phase liquid chromatography. Glc-S-C8-CONH-C2-NBD and HO-C2-NBD were detected and quantitatively determined by fluorescence detector.

Turning to `CCCCCCCCS[C@@H]1O[C@H](CO)[C@H](O)[C@H](O)[C@H]1O` [Gal-S-C8, Octyl 1-thio-β-D-galactopyranoside], the figures for the IC50 in the data set on kidney membrane fraction [1] and on kidney membrane fraction [2] were 37 µM and 120 µM, respectively.
On kidney membrane fraction [2], `OC[C@H]1OC(O)[C@H](O)[C@@H](O)[C@@H]1O` (some centres unmarked) [Glc, glucopyranose] had an IC50 above 2000 µM. The “Inhibition (%)” value came out at 16.7% in the data set on kidney membrane fraction [3] (sample 20 mM) and 38.4% in the data set on kidney membrane fraction [3] (sample 100 mM).
Regarding `CCCCCCO[C@@H]1O[C@H](CO)[C@@H](O)[C@H](O)[C@H]1O` [Glc-O-C6, Hexyl β-D-glucopyranoside], the IC50 at kidney membrane fraction [2] came to 5.9 µM.
With `CCCCCCCCO[C@@H]1O[C@H](CO)[C@@H](O)[C@H](O)[C@H]1O` [Glc-O-C8, Octyl β-D-glucopyranoside], the IC50 in the data set with kidney membrane fraction [1] amounted to 4.6 µM; at kidney membrane fraction [2], 2.9 µM.
For the compound `CO[C@@H]1O[C@H](CO)[C@@H](O)[C@H](O)[C@H]1O` [Glc-O-CH3, Methyl β-D-glucopyranoside], at kidney membrane fraction [2], the IC50 is above 2000 µM.
Take `CCCCCCCCS[C@@H]1O[C@H](CO)[C@@H](O)[C@H](O)[C@H]1O` [Glc-S-C8, Octyl 1-thio-β-D-glucopyranoside]: the figures for the IC50 in the data set on kidney membrane fraction [1] and on kidney membrane fraction [2] were 0.078 µM and 0.065 µM, respectively.
With `N=C(N)NCCC[C@H](NC(=O)[C@@H]1CCCN1C(=O)[C@@H]1CSSC[C@H](NC(=O)CCCCCCCCS[C@@H]2O[C@H](CO)[C@@H](O)[C@H](O)[C@H]2O)C(=O)N[C@@H](Cc2ccc(O)cc2)C(=O)N[C@@H](Cc2ccccc2)C(=O)N[C@@H](CCC(N)=O)C(=O)N[C@@H](CC(N)=O)C(=O)N1)C(=O)NCC(N)=O` [Glc-S-C8-AVP], in data set [4], the Conc. in kidney is 29.2±0.9 % of dose/g; the Renal clearance was 3.42 mL/min/g and 3.42 ± 0.05 mL/min/g; the renal selectivity result was “higher renal selectivity than Glc-O-C8-AVP”.
Consider `O=C(CCCCCCCCS[C@@H]1O[C@H](CO)[C@@H](O)[C@H](O)[C@H]1O)NCCNc1ccc([N+](=O)[O-])c2nonc12` [Glc-S-C8-CONH-C2-NBD], for which, in data set [5], the “concentration of administered compound: Adrenal” value is listed as 1.87 pmol/mol or g tissue, the “concentration of administered compound: Blood” value is 10.72 pmol/mol or g tissue, the “concentration of administered compound: Heart” value is on record as 3.23 pmol/mol or g tissue and the “concentration of administered compound: Kidney” value was 280.32 pmol/mol or g tissue. In addition, in data set [5], the “concentration of administered compound: Liver” value is 13.85 pmol/mol or g tissue, the “concentration of administered compound: Lung” value is given as 6.90 pmol/mol or g tissue, the “concentration of administered compound: Plasma” value was 16.42 pmol/mol or g tissue and the “concentration of administered compound: Spleen” value is reported as 0.55 pmol/mol or g tissue.
For `N=C(N)NCCC[C@H](NC(=O)[C@@H]1CCCN1C(=O)[C@@H]1CSSC[C@H](NC(=O)CCCCCCCCCCCS[C@@H]2O[C@H](CO)[C@@H](O)[C@H](O)[C@H]2O)C(=O)N[C@@H](Cc2ccc(O)cc2)C(=O)N[C@@H](Cc2ccccc2)C(=O)N[C@@H](CCC(N)=O)C(=O)N[C@@H](CC(N)=O)C(=O)N1)C(=O)NCC(N)=O` [Glc-S-C11-AVP], in data set [4], the Conc. in kidney was 40.2±1.5 % of dose/g, the Renal clearance amounted to 4.47 ± 0.33 mL/min/g and the renal selectivity entry is reported as “higher renal selectivity than Glc-S-C8-AVP”.
Take `O=[N+]([O-])c1ccc(NCCO)c2nonc12` [HO-C2-NBD, 4-(2-hydroxyethyl)amino-7-nitrobenz-2-oxa-1,3-diazole, reference compound]: in data set [5], the “concentration of administered compound: Adrenal” value is listed as 2.05 pmol/mol or g tissue, the “concentration of administered compound: Blood” value was 7.53 pmol/mol or g tissue, the “concentration of administered compound: Heart” value is reported as 10.92 pmol/mol or g tissue and the “concentration of administered compound: Kidney” value was 2.33 pmol/mol or g tissue. Further, in data set [5], the “concentration of administered compound: Lung” value is 17.33 pmol/mol or g tissue, the “concentration of administered compound: Plasma” value is given as 7.51 pmol/mol or g tissue and the “concentration of administered compound: Spleen” value is recorded as 2.35 pmol/mol or g tissue.
Take “arginine vasopressin [AVP, reference compound]”: in data set [4], the Conc. in kidney is reported as 5.3±0.7 % of dose/g and the Renal clearance worked out at 0.49 ± 0.04 mL/min/g. At kidney membrane fraction [2], this compound had an IC50 of 150 µM.
